The values below come from patent publication US7612104B2, “Bicyclic aryl-sulfonic acid [1,3,4]-thiadiazol-2-yl-amides, processes for their preparation, pharmaceutical compositions and methods for their use” (Sanofi-Aventis, priority 2005, dated 2009).

The target in the assay is T1, human PPARdelta (Homo sapiens, UniProt Q03181).
T1 construct: amino acids S139-Y441; expressed in transfected cells; host or cells: HEK cells, stably transfected (pcDNA3, CMV promoter)
T1 sequence (Q03181 139-441): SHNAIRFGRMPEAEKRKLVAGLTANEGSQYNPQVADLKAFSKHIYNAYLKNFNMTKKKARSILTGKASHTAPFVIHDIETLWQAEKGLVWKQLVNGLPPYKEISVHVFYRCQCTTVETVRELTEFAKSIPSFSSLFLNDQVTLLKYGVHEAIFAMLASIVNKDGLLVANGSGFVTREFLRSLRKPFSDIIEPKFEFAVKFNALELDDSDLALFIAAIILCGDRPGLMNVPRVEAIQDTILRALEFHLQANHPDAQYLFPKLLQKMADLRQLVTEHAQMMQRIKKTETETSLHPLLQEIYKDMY
Put plainly: Cellular PPARdelta assay (stably transfected HEK reporter cell line, luciferase). In kind it is cell-based. The settings on record: GR-GAL4-humanPPARdelta-LBD. Here is the method:
The activity of PPARalpha agonists is determined in a 3-day assay which is described below:
The PPARalpha reporter cell line is cultivated to 80% confluence in DMEM (#41965-039, Invitrogen) which is mixed with the following additions: 10% cs-FCS (fetal calf serum; #SH-30068.03, Hyclone), 0.5 mg/ml zeocin (#R250-01, Invitrogen), 0.5 mg/ml G418 (#10131-027, Invitrogen), 1% penicillin-streptomycin solution (#15140-122, Invitrogen) and 2 mM L-glutamine (#25030-024, Invitrogen). The cultivation takes place in standard cell culture bottles (#353112, Becton Dickinson) in a cell culture incubator at 37° C. in the presence of 5% CO2. The 80%-confluent cells are washed once with 15 ml of PBS (#14190-094, Invitrogen), treated with 3 ml of trypsin solution (#25300-054, Invitrogen) at 37° C. for 2 min, taken up in 5 ml of the DMEM described and counted in a cell counter. After dilution to 500.000 cells/ml, 35,000 cells are seeded in each well of a 96 well microtiter plate with a clear plastic base (#3610, Corning Costar). The plates are incubated in the cell culture incubator at 37° C. and 5% CO2 for 24 h.
PPARalpha agonists to be tested are dissolved in DMSO in a concentration of 10 mM. This stock solution is diluted in DMEM (#41965-039, Invitrogen) which is mixed with 5% cs-FCS (#SH-30068.03, Hyclone), 2 mM L-glutamine (#25030-024, Invitrogen) and the previously described antibiotics (zeocin, G418, penicillin and streptomycin). Test substances are tested in 11 different concentrations in the range from 10 μM to 100 pM.
The medium of the PPARalpha reporter cell line seeded on day 1 is completely removed by aspiration, and the test substances diluted in medium are immediately added to the cells. The dilution and addition of the substances is carried out by a robot (Beckman FX). The final volume of the test substances diluted in medium is 100 μl per well of a 96 well microtiter plate. The DMSO concentration in the assay is less than 0.1% v/v in order to avoid cytotoxic effects of the solvent.
The assay plates are incubated in an incubator at 37° C. and 5% CO2 for 24 h.
The PPARalpha reporter cells treated with the test substances are removed from the incubator, and the medium is aspirated off. The cells are lyzed by pipetting 50 μl of Bright Glo reagent (from Promega) into each well of a 96 well microtiter plate. After incubation at room temperature in the dark for 10 minutes, the microtiter plates are measured in the luminometer (Trilux from Wallac). The measuring time for each well of a microtiter plate is 1 sec.
The raw data from the luminometer are transferred into a Microsoft Excel file. Dose-effect plots and EC50 values of PPAR agonists are calculated using the XL.Fit program as specified by the manufacturer (IDBS).
The potency of substances which bind to human PPARdelta and activate it in an agonistic manner is analyzed using a stably transfected HEK cell line (HEK=human embryo kidney) which is referred to here as PPARdelta reporter cell line. In analogy to the assay described for PPARalpha, the PPARdelta reporter cell line also contains two genetic elements, a luciferase reporter element (pdeltaM-GAL4-Luc-Zeo) and a PPARdelta fusion protein (GR-GAL4-humanPPARdelta-LBD) which mediates expression of the luciferase reporter element depending on a PPARdelta ligand. The stably and constitutively expressed fusion protein GR-GAL4-humanPPARdelta-LBD binds in the cell nucleus of the PPARdelta reporter cell line via the GAL4 protein portion to the GAL4 DNA binding motifs 5′-upstream of the luciferase reporter element which is stably integrated in the genome of the cell line. There is only little expression of the luciferase reporter gene in the absence of a PPARdelta ligand if fatty acid-depleted fetal calf serum (cs-FCS) is used in the assay. PPARdelta ligands bind and activate the PPARdelta fusion protein and thereby stimulate expression of the luciferase reporter gene. […]

In turn, `CCOc1cc(C(F)(F)F)ccc1C(=O)NC1Cc2ccc(S(=O)(=O)Nc3nnc(C(C)C)s3)cc2C1` (single isomer, unassigned; enantiomer 2) [Example 1.2, 2-Ethoxy-N-[5-(5-isopropyl-[1,3,4]thiadiazol-2-ylsulfamoyl)-indan-2-yl]-4-trifluoromethyl-benzamide (Enantiomer 2)] yielded an EC50 of 0.05 µM.
In the case of `CCOc1cc(C(F)(F)F)ccc1C(=O)N[C@H]1CCc2ccc(S(=O)(=O)Nc3nnc(C(C)C)s3)cc2C1` [Example 5, 2-Ethoxy-N-[(S)-7-(5-isopropyl-[1,3,4]thiadiazol-2-ylsulfamoyl)-1,2,3,4-tetrahydro-naphthalen-2-yl]-4-trifluoromethyl-benzamide] it was 0.6 µM.
With `CCOc1cc(C(F)(F)F)ccc1C(=O)NC1Cc2ccc(S(=O)(=O)Nc3nnc(C(C)C)s3)cc2C1` (racemic) [Example 1, 2-Ethoxy-N-[5-(5-isopropyl-[1,3,4]thiadiazol-2-ylsulfamoyl)-indan-2-yl]-4-trifluoromethyl-benzamide] the figure was 0.001 µM.
In turn, `CCOc1cc(C(F)(F)F)sc1C(=O)NC1Cc2ccc(S(=O)(=O)Nc3nnc(C(C)C)s3)cc2C1` (stereo not drawn) [Example 11, 3-Ethoxy-5-trifluoromethyl-thiophene-2-carboxylic acid [5-(5-isopropyl-[1,3,4]thiadiazol-2-ylsulfamoyl)-indan-2-yl]-amide] registered an EC50 of 0.001 µM.
For `CCOc1cc(C(F)(F)F)ccc1C(=O)NC1Cc2ccc(S(=O)(=O)Nc3nnc(C(C)C)s3)cc2C1` (single isomer, unassigned; enantiomer 1) [Example 1.1, 2-Ethoxy-N-[5-(5-isopropyl-[1,3,4]thiadiazol-2-ylsulfamoyl)-indan-2-yl]-4-trifluoromethyl-benzamide (Enantiomer 1)], the EC50 was 0.001 µM.
In the case of `CCOc1cc(C(F)(F)F)ccc1C(=O)N[C@@H]1CCc2ccc(S(=O)(=O)Nc3nnc(C(C)C)s3)cc2C1` [Example 6, 2-Ethoxi-N-[(R)-7-(5-isopropyl-[1,3,4]thiadiazol-2-ylsulfamoyl)-1,2,3,4-tetrahydro-naphthalene-2-yl]-4-trifluoromethyl-benzamide] it was 0.6 µM.
